Laboratory results reported in US20050271723A1, “Dosage forms for treatment of benign prostatic hyperplasia” (Threshold Pharmaceuticals, Inc., priority 2003, published 2005).
“Also recorded” adds a separate entry of the source.

Legend:
[1] = test system: human prostate stromal cells; assay: Apoptosis assay in primary cultures of human prostate stromal cells; type: cell-based; conditions: 6 h
Description: (§1) Primary Cell Cultures: Primary cultures of human prostate epithelial cells (Cambrex No. CC-2555) and human prostate stromal cells (Cambrex No. CC-2508) were obtained from Cambrex Bio Science Rockland, Inc. (191 Thomaston Street, Rockland, Me. 04841). Apoptosis Assay: […] Lonidamine was added into each well at different concentrations, and then incubated for 6 h at 37° C. To assess the caspase 3 activity, the homogeneous buffer and caspase 3 substrate (Promega No G7791; Promega Corporation, 2800 Woods Hollow Road, Madison Wis. USA 53711) were added into each well in the presence or absence of caspase 3 inhibitor (Promega No G5961). The fluorescence intensity of cleaved substrate was determined using a fluorescence plate reader at excitation 485 nm and emission 530 nm.

[2] = test system: HIF-1α; assay: HIF-1α expression in PC3 cells (immunoblot of nuclear and whole cell extracts); type: cell-based, human; conditions: normoxic and hypoxic conditions, 4 hours, dose-dependent
Source text: (§2) See Franklin et al; 1995. […] 20108 USA. Methods: […]

[3] = test system: actin, caspase 3, NF-κB, IκBα; assay: Protein levels of actin, caspase 3, NF-κB, IκBα in prostate cell lines (immunoblot); type: cell-based, human; conditions: except at 800 μM concentration
Description: Methods: Cells were plated at a density of 5×10^5 cells into a dish, and then maintained in 37° C. incubator (5% CO2) for 2 days. Prior to the assay, cells were rinsed twice with pre-warmed (37° C.) RPMI-1640 Medium (ATCC No. 30-2001; 10 mM HEPES; 1 mM sodium pyruvate; 2 mM L-glutamine; 4500 mg glucose/L; 1500 mg sodium bicarbonate/L). Cells were incubated with 2 ml culture medium in the absence or presence of lonidamine at different concentrations for 4 hours at 37° C. either under normoxia or hypoxia (oxygen level<0.1%). At the end of the incubation, the dish was placed on ice, and the cells were washed rapidly twice with cold PBS buffer (4° C.). For nuclear extracts, cells were lysed with buffer A (10 mM Tris, pH7.5; 1.5 mM MgCl2; 10 mM KCl and protease inhibitors and buffer C (0.5 M NaCl; 20 mM Tris pH7.5; 1.5 mM MgCl2; 20% glycerol and protease inhibitors), sequentially. The protease inhibitors used in the experiments were a cocktail of five protease inhibitors (500 mM AEBSF-HCl, 1 mg/ml Aprotinin, 1 mM E-64, 500 mM EDTA and 1 mM Leupeptin; Calbiochem NO 539131). For whole cell lysate, cells were lysed with 150 mM NaCl; 10 mM Tris ph7.5; 10 mM EDTA; 1% Triton X-100; 0.5% Deoxycholate, and protease inhibitors. The protein concentration was measured using a Bio-Rad protein assay. Equal amounts of protein were loaded on a SDS-PAGE gel. […]

[4] = test system: PC3 cells; assay: Apoptosis assay (caspase 3 activity) in PC3 cells; type: cell-based, human; conditions: PC3, citrate-oxidizing cells; 6 h
Description: as §1, with “Immunoblotting: Immunoblotting was carried out as described in Example 2. […]” for “Primary Cell Cultures: Primary cultures of human prostate epithelial cells (Cambrex No. CC-2555) and human prostate stromal cells (Cambrex No. CC-2508) were obtained from Cambrex Bio Science Rockland, Inc. (191 Thomaston Street, Rockland, Me. 04841).”

[5] = test system: LNCaP cells; assay: Apoptosis assay (caspase 3 activity) in LNCaP cells; type: cell-based, human; conditions: citrate-producing cells, 6 h
Description: as §1, with “Immunoblotting: Immunoblotting was carried out as described in Example 2. […]” for “Primary Cell Cultures: Primary cultures of human prostate epithelial cells (Cambrex No. CC-2555) and human prostate stromal cells (Cambrex No. CC-2508) were obtained from Cambrex Bio Science Rockland, Inc. (191 Thomaston Street, Rockland, Me. 04841).”

[6] = test system: human prostate epithelial cells; assay: Apoptosis assay in primary cultures of human prostate epithelial cells; type: cell-based
Description: as §1

[7] = higher doses of lonidamine; usually mild; cited from earlier work
[8] = test system: HIF-1α; assay: HIF-1α expression in LNCaP cells (immunoblot of nuclear and whole cell extracts); type: cell-based, human; conditions: hypoxic conditions (oxygen level <0.1%)
Source text: as §2

O=C(O)c1nn(Cc2ccc(Cl)cc2Cl)c2ccccc12 [lonidamine, 1-(2,4-dichlorobenzyl)-1H-indazole-3-carboxylic acid]
induction of apoptosis [1]: induction of apoptosis was not observed | level of HIF-1α protein in nuclear and whole-cell extracts [2]: reduced the level of HIF-1α protein | inhibition of protein levels of actin, caspase 3, NF-κB, or IκBα [3]: no detectable inhibition | activation of caspase 3 (apoptosis), LNCaP compared with PC3 cells [4]: significantly greater in LNCaP cells | activation of caspase 3 (apoptosis) [5]: induced activation of caspase 3 | induction of apoptosis, epithelial compared with stromal cells ([6]; primary cultures): significantly greater in primary cultures of prostate epithelial cells | induction of apoptosis ([6]; primary prostate epithelial cells, 6 h): induced apoptosis only in prostate epithelial cells in a dose-dependent manner; also recorded: induces apoptosis | side effects [7]: myalgia and testicular pain | effect on HIF-1α expression, LNCaP compared with PC3 cells [8]: more pronounced in LNCaP cells than in PC3 cells
